Results on twelve compounds are retold here after US11827628B2, “Compositions and methods for inhibition of the JAK pathway” (Rigel Pharmaceuticals, Inc., priority 2005, dated 2023).

Test [1] has as its system IL-4 stimulated expression of CD23 in human Ramos B cells (JAK-1 and JAK-3). Briefly: Assay for Ramos B-Cell Line Stimulated with IL-4 (CD23 upregulation, FACS). As to conditions: Ramos B cells stimulated with IL-4, CD23 expression by FACS, read-out: IC50, Example 41. Format: cell-based. The gist of the method: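 Human Ramos B cells in RPMI with 5% serum were pre-incubated with compound or DMSO for 1 h at 37 °C, then stimulated with IL-4 at a final 50 units/mL for 20-24 h. CD23 upregulation was measured by anti-CD23-PE staining and flow cytometry, and IC50 values were calculated.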
For orientation: In flow cytometry, cells or beads pass a laser one at a time.

For test [2], the system named is Primary human T-cells. Briefly: Primary Human T-Cell Proliferation Assay Stimulated with IL-2 (CellTiter-Glo). Format: cell-based. Conditions: primary human T-cells stimulated with IL-2, proliferation, read-out: IC50, Example 42. The method, boiled down:
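IC50 derived from CellTiter-Glo ATP signal after 72 hours of IL-2-driven proliferation at 37° C. Cells: primary human T-cells from blood, stimulated beforehand 3-4 days on anti-CD3/anti-CD28 with IL-2, then rested from IL-2 before compound exposure in duplicate; IL-2-free wells served as unstimulated control.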

Like-named read-outs stand apart in the source and are kept apart here.

Consider `COc1ccc(Nc2nc(Nc3ccc(Cl)c(S(=O)(=O)NC(C)=O)c3)ncc2F)cc1Cl` [VI-12, N2-[3-(N-Acetyl)aminosulfonyl-4-chlorophenyl]-N4-(3-chloro-4-methoxyphenyl)-5-fluoro-2,4-pyrimidinediamine], for which the IC50 in test [1] (Homo sapiens, Ramos) was 146 nM; in test [2] (Homo sapiens, T-cell), 1310 nM.

For the compound `Cc1cc(Nc2ncc(F)c(Nc3ccc(OC(F)(F)F)c(Cl)c3)n2)cc(S(N)(=O)=O)c1F` [VI-16, N2-(3-Aminosulfonyl-4-fluoro-5-methylphenyl)-N4-(3-chloro-4-trifluoromethoxyphenyl)-5-fluoro-2,4-pyrimidinediamine], the IC50 in test [1] (Homo sapiens, Ramos) turned out to be 259 nM; in test [2] (Homo sapiens, T-cell) it was 3910 nM.

On to `COc1ccc(Nc2nc(Nc3ccc(OC)c(S(N)(=O)=O)c3)ncc2F)cc1Cl` [VI-29, N2-(3-Aminosulfonyl-4-methoxyphenyl)-N4-(3-chloro-4-methoxyphenyl)-5-fluoro-2,4-pyrimidinediamine], for which the IC50 worked out at 49.8 nM in test [1] (Homo sapiens, Ramos) and 362 nM in test [2] (Homo sapiens, T-cell).

`COc1ccc(Nc2nc(Nc3cc(C)c(OC)c(S(N)(=O)=O)c3)ncc2F)cc1Cl` [VI-30, N2-(3-Aminosulfonyl-4-methoxy-5-methylphenyl)-N4-(3-chloro-4-methoxyphenyl)-5-fluoro-2,4-pyrimidinediamine]: the half-inhibitory concentration (IC50) worked out at 13.2 nM in test [1] (Homo sapiens, Ramos) and 170 nM in test [2] (Homo sapiens, T-cell).

With `Cc1ccc(Nc2ncc(F)c(Nc3ccc(OC(F)(F)F)cc3)n2)cc1S(N)(=O)=O` [VI-32, N2-(3-aminosulfonyl-4-methylphenyl)-5-fluoro-N4-(4-trofluoromethoxyphenyl)-2,4-pyrimidinediamine], the IC50 in test [1] worked out at 333 nM; in test [2], 1660 nM.

Turning to `NS(=O)(=O)c1cccc(Nc2ncc(F)c(Nc3ccc(OC(F)(F)F)cc3)n2)c1` [VI-33, N2-(3-aminosulfonylphenyl)-5-fluoro-N4-(4-trofluoromethoxyphenyl)-2,4-pyrimidinediamine], the half-maximal inhibitory concentration (IC50) came to 272 nM in test [1] and 660 nM in test [2].

Regarding `CC(C)(C)c1ccc(Nc2nc(Nc3cccc(S(N)(=O)=O)c3)ncc2F)cc1` [VI-35, N2-(3-Aminosulfonylphenyl)-N4-(4-tert-butylphenyl)-5-fluoro-2,4-pyrimidinediamine], the IC50 in test [1] (Homo sapiens, Ramos) is 158 nM; in test [2] (Homo sapiens, T-cell) it was 1260 nM.

Consider `Cc1ccc(Nc2ncc(F)c(Nc3ccc(C(C)(C)C)cc3)n2)cc1S(N)(=O)=O` [VI-36, N2-(3-Aminosulfonyl-4-methylphenyl)-N4-(4-tert-butylphenyl)-5-fluoro-2,4-pyrimidinediamine], for which the half-maximal inhibitory concentration (IC50) came to 374 nM in test [1] (Homo sapiens, Ramos) and 4500 nM in test [2] (Homo sapiens, T-cell).

`Cc1ccc(Nc2ncc(F)c(Nc3ccc(Cl)c(C(F)(F)F)c3)n2)cc1S(N)(=O)=O` [VI-39, N2-(3-Aminosulfonyl-4-methyl-phenyl)-N4-(4-chloro-3-trifluoromethylphenyl)-5-fluoro-2,4-pyrimidinediamine]: the IC50 in test [1] (Homo sapiens, Ramos) was 401 nM; in test [2] (Homo sapiens, T-cell), 3140 nM.

In the case of `NS(=O)(=O)c1cc(Nc2ncc(F)c(Nc3ccc(C(F)(F)F)cc3)n2)ccc1Cl` [VI-41, N2-(3-Aminosulfonyl-4-chlorophenyl)-5-fluoro-N4-(4-trifluorophenyl)-2,4-pyrimidinediamine], the half-inhibitory concentration (IC50) in test [1] was 342 nM; in test [2], 6240 nM.

Regarding `NS(=O)(=O)c1cc(Nc2ncc(F)c(Nc3ccc(OC(F)(F)F)cc3)n2)ccc1Cl` [VI-42, N2-(3-Aminosulfonyl-4-chlorophenyl)-5-fluoro-N4-(4-trifluoromethoxyphenyl)-2,4-pyrimidinediamine], the concentration for half-maximal inhibition (IC50) in test [1] (Homo sapiens, Ramos) came out at 452 nM; in test [2] (Homo sapiens, T-cell) it was 6170 nM.

As for `CC(C)(C)c1ccc(Nc2nc(Nc3ccc(Cl)c(S(N)(=O)=O)c3)ncc2F)cc1` [VI-43, N2-(3-Aminosulfonyl-4-chlorophenyl)-N4-(4-tert-butylphenyl)-5-fluoro-2,4-pyrimidinediamine], the IC50 in test [1] (Homo sapiens, Ramos) came to 739 nM; in test [2] (Homo sapiens, T-cell) it was 6140 nM.

For orientation: IC50 means the midpoint of a concentration-inhibition curve.
